According to the NIST ThermoML archive (doi:10.1016/j.jct.2018.04.019):

Settings: Liquid; for speed of sound: Frequency=5 MHz, Pulse-echo method; for mass density: Vibrating tube method

CCCCCCCCC [nonane]
Settings	mass density [kg/m3]	speed of sound [m/s]
283.13 K, 1090 kPa	–	1273.9
283.13 K, 30100 kPa	–	1432.4
283.13 K, 59970 kPa	–	1563.7
283.13 K, 90370 kPa	–	1676.8
283.13 K, 120250 kPa	–	1774.7
283.13 K, 149990 kPa	–	1862.2
283.13 K, 180130 kPa	–	1943.2
283.13 K, 210070 kPa	–	2017.3
283.13 K, 240000 kPa	–	2086.3
283.13 K, 270320 kPa	–	2151.8
283.13 K, 300010 kPa	–	2212.5
283.13 K, 330300 kPa	–	2271
283.13 K, 360220 kPa	–	2326
283.13 K, 389880 kPa	–	2378.1
283.15 K, 1010 kPa	726.22	–
283.15 K, 5020 kPa	729.22	–
283.15 K, 5040 kPa	729.17	–
283.15 K, 10020 kPa	732.75	–
283.15 K, 15020 kPa	736.14	–
283.15 K, 20040 kPa	739.41	–
283.15 K, 25020 kPa	742.54	–
283.15 K, 30040 kPa	745.52	–
283.15 K, 35050 kPa	748.45	–
283.15 K, 40010 kPa	751.23	–
283.15 K, 45050 kPa	753.99	–
283.15 K, 50010 kPa	756.62	–
283.15 K, 55020 kPa	759.19	–
283.15 K, 60030 kPa	761.66	–
283.15 K, 65010 kPa	764.08	–
298.15 K, 1020 kPa	714.83	–
298.15 K, 1040 kPa	–	1212.6
298.15 K, 5010 kPa	718.08	–
298.15 K, 5040 kPa	718.12	–
298.15 K, 10030 kPa	721.94	–
298.15 K, 15060 kPa	725.7	–
298.15 K, 20040 kPa	729.17	–
298.15 K, 25040 kPa	732.54	–
298.15 K, 30010 kPa	735.76	–
298.15 K, 30040 kPa	–	1380.2
298.15 K, 35050 kPa	738.87	–
298.15 K, 40010 kPa	741.88	–
298.15 K, 45060 kPa	744.79	–
298.15 K, 50010 kPa	747.56	–
298.15 K, 55040 kPa	750.31	–
298.15 K, 60020 kPa	752.92	–
298.15 K, 60130 kPa	–	1518
298.15 K, 65010 kPa	755.48	–
298.15 K, 90110 kPa	–	1633.4
298.15 K, 120200 kPa	–	1734.7
298.15 K, 150120 kPa	–	1824.9
298.15 K, 180370 kPa	–	1907.9
298.15 K, 210410 kPa	–	1983.7
298.15 K, 240020 kPa	–	2053.1
298.15 K, 270230 kPa	–	2119.6
298.15 K, 300100 kPa	–	2181.4
298.15 K, 330260 kPa	–	2240.5
298.15 K, 360030 kPa	–	2296
298.15 K, 390030 kPa	–	2349.2
323.14 K, 1020 kPa	–	1112.3
323.14 K, 30050 kPa	–	1297.8
323.14 K, 60210 kPa	–	1445.2
323.14 K, 90150 kPa	–	1566.7
323.14 K, 120240 kPa	–	1672.3
323.14 K, 150130 kPa	–	1765.5
323.14 K, 179980 kPa	–	1850.1
323.14 K, 210410 kPa	–	1929.2
323.14 K, 239980 kPa	–	2000.4
323.14 K, 270330 kPa	–	2068.7
323.14 K, 300070 kPa	–	2131.6
323.14 K, 330050 kPa	–	2191.3
323.14 K, 360040 kPa	–	2247.9
323.14 K, 390060 kPa	–	2301.7
323.15 K, 1030 kPa	695.27	–
323.15 K, 5030 kPa	699.04	–
323.15 K, 5060 kPa	699.09	–
323.15 K, 10050 kPa	703.57	–
323.15 K, 15020 kPa	707.81	–
323.15 K, 20050 kPa	711.84	–
323.15 K, 25020 kPa	715.63	–
323.15 K, 30020 kPa	719.22	–
323.15 K, 35080 kPa	722.75	–
323.15 K, 40050 kPa	726.09	–
323.15 K, 45060 kPa	729.27	–
323.15 K, 50030 kPa	732.36	–
323.15 K, 55050 kPa	735.35	–
323.15 K, 60010 kPa	738.19	–
323.15 K, 65010 kPa	741.02	–
348.14 K, 1040 kPa	–	1017.2
348.14 K, 1060 kPa	–	1018.1
348.14 K, 30150 kPa	–	1220.8
348.14 K, 59870 kPa	–	1375.2
348.14 K, 90060 kPa	–	1503.8
348.14 K, 120210 kPa	–	1613.8
348.14 K, 150180 kPa	–	1710.4
348.14 K, 180310 kPa	–	1798.1
348.14 K, 210230 kPa	–	1877.8
348.14 K, 240360 kPa	–	1951.8
348.14 K, 269990 kPa	–	2019.2
348.14 K, 300420 kPa	–	2084.3
348.14 K, 330170 kPa	–	2144.5
348.14 K, 360170 kPa	–	2202.2
348.14 K, 390070 kPa	–	2256.5
348.15 K, 1010 kPa	675.18	–
348.15 K, 5030 kPa	679.76	–
348.15 K, 5040 kPa	679.76	–
348.15 K, 10030 kPa	685	–
348.15 K, 15020 kPa	689.84	–
348.15 K, 20040 kPa	694.44	–
348.15 K, 25050 kPa	698.79	–
348.15 K, 30030 kPa	702.84	–
348.15 K, 35050 kPa	706.74	–
348.15 K, 40020 kPa	710.4	–
348.15 K, 45070 kPa	714.01	–
348.15 K, 50040 kPa	717.37	–
348.15 K, 55050 kPa	720.67	–
348.15 K, 60000 kPa	723.79	–
348.15 K, 65040 kPa	726.84	–
373.14 K, 1020 kPa	–	924.94
373.14 K, 30120 kPa	–	1147.9
373.14 K, 60040 kPa	–	1312.4
373.14 K, 90420 kPa	–	1447
373.14 K, 120190 kPa	–	1559.5
373.14 K, 150200 kPa	–	1659
373.14 K, 180540 kPa	–	1749
373.14 K, 210010 kPa	–	1829.3
373.14 K, 240370 kPa	–	1905.5
373.14 K, 270130 kPa	–	1974.7
373.14 K, 300130 kPa	–	2040.3
373.14 K, 330240 kPa	–	2102.3
